Our source for the IC50 values is patent publication US20210300940A1 (Merck Patent GmbH, priority 2018, published 2021).

Counter-ions that a name gives are not always drawn. Where only a bound is given, the exact number is not on record here.

For one test, the target named is T1, TLR8 (Homo sapiens, UniProt Q9NR97).
T1 construct: expressed in transfected cells; host or cells: HEK/293 reporter cells (NF-kB luciferase)
T1 sequence (Q9NR97 27-1041): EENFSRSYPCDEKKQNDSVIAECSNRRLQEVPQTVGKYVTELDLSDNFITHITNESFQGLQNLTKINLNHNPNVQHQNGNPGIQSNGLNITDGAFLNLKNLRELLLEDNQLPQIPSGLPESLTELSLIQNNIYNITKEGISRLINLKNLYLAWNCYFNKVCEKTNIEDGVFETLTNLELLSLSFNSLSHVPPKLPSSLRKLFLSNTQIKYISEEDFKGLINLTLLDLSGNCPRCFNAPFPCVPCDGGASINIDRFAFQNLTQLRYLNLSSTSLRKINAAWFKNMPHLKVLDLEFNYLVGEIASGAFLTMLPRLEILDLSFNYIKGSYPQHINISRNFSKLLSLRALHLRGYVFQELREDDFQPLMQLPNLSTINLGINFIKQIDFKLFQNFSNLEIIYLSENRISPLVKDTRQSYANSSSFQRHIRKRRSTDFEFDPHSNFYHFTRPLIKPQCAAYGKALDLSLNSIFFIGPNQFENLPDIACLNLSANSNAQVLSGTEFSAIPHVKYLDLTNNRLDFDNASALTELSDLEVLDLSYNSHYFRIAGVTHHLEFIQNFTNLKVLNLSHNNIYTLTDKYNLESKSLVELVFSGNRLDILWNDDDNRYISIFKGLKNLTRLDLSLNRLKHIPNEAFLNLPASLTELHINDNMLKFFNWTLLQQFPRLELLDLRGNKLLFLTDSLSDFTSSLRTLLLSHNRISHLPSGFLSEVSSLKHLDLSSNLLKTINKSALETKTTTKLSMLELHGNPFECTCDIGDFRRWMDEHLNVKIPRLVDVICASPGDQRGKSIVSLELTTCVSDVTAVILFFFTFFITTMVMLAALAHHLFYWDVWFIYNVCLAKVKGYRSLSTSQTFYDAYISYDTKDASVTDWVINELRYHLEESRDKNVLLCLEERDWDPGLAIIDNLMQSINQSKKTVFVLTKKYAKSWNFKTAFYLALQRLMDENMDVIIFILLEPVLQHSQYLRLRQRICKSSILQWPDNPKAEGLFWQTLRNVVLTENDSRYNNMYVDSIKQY
Put plainly: HEK/293 TLR8 Cell Assay. Type of test: cell-based. The following applies: HEK cells, R848 agonist 30 uM final concentration, Steady-Glo readout; read-out: TLR8 potency.

The target of another test is T2, TLR7 (Homo sapiens, UniProt Q9NYK1).
T2 construct: expressed in transfected cells; host or cells: HEK/293 cells carrying TLR7 and an NF-kB luciferase reporter
T2 sequence (Q9NYK1 27-1049): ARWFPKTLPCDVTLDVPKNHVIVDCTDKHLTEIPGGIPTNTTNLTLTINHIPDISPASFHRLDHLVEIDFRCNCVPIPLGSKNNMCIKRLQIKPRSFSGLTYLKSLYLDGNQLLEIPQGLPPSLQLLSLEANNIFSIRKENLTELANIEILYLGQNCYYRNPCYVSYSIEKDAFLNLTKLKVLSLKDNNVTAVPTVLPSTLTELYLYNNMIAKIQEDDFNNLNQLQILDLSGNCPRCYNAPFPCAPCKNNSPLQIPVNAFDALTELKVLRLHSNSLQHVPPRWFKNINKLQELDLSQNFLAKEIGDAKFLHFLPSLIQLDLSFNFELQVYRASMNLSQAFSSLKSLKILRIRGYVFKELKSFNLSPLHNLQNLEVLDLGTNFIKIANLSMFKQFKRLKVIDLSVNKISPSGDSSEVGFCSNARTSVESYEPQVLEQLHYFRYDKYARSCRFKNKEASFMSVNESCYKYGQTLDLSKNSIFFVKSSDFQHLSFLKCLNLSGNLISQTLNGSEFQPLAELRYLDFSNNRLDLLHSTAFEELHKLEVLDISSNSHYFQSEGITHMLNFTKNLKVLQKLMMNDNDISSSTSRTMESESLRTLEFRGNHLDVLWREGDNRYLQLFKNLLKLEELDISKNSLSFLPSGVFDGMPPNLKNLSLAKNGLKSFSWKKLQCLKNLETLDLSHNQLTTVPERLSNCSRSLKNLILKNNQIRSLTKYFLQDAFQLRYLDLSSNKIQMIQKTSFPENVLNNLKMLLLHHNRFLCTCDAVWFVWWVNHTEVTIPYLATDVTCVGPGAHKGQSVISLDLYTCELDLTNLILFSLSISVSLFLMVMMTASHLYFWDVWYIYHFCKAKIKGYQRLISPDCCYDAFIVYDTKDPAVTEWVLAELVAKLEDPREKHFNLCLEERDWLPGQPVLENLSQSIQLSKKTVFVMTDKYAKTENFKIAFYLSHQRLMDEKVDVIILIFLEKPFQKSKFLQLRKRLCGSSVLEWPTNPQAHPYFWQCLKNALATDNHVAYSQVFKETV
Put plainly: HEK/293 TLR7 Cell Assay. Type of test: cell-based. The following applies: TLR7/NFKb HEK cells, R848 agonist 10 uM final concentration, Steady-Glo readout; read-out: TLR7 potency. The procedure, abridged: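 TLR7/NF-κB reporter HEK293 cells, 5000/well, cultured 24 h, then preincubated 30 min with compound before R848 agonist (10 uM final). After 5 h stimulation, Steady-Glo luciferase luminescence read.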

As to `C[C@H]1C[C@@H](NC2CS(=O)(=O)C2)CN(c2ccc(C(F)(F)F)c3ncccc23)C1` [Example 13, (1,1-Dioxo-1lambda6-thietan-3-yl)-[(3R,5S)-5-methyl-1-(8-trifluoromethyl-quinolin-5-yl)-piperidin-3-yl]-amine], the IC50 at TLR8 and on TLR7 was less than 75 nM throughout.

With `CCS(=O)(=O)NCCN[C@@H]1C[C@H](C)CN(c2ccc(C(F)(F)F)c3nccnc23)C1` [Example 24], the results for the IC50 at TLR8 and on TLR7 were less than 75 nM and 75 to 150 nM, respectively.

`C[C@H]1C[C@@H](NCC(O)CO)CN(c2cnc(C#N)c3ncccc23)C1` (stereo partly drawn) [Example 35, 5-[(3R,5S)-3-(2,3-Dihydroxy-propylamino)-5-methyl-piperidin-1-yl]-naphthyridine-8-carbonitrile]: the IC50 on TLR8 and on TLR7 was more than 150 nM each time.

Turning to `CN(C)CCNC(=O)N[C@@H]1C[C@H](C(F)(F)F)CN(c2ccc(C#N)c3ncccc23)C1` [Example 143, 1-[(3R,5S)-1-(8-cyanoquinolin-5-yl)-5-(trifluoromethyl)piperidin-3-yl]-3-[2-(dimethylamino)ethyl]urea], the values for the IC50 on TLR8 and on TLR7 were 75 to 150 nM and less than 75 nM, respectively.

On to `C[C@H]1C[C@@H](NC(=O)[C@H](C)N2CCN(C)CC2)CN(c2ccc(C(F)(F)F)c3ncccc23)C1` (single isomer, unassigned) [Example 93], for which the IC50 at TLR8 and on TLR7 was less than 75 nM in each case.

Regarding `C[C@@H]1CN(c2cnc(C#N)c3ncccc23)C[C@H](C(=O)NC2CCN(CC3CC3)C2)O1` (stereo partly drawn) [Example 272, (2R,6R)-4-(8-Cyano-[1,7]naphthyridin-5-yl)-6-methyl-morpholine-2-carboxylic acid (1-cyclopropylmethyl-pyrrolidin-3-yl)-amide], the IC50 at TLR8 and at TLR7 was less than 75 nM throughout.

In the case of `C[C@H]1C[C@@H](NC(=O)[C@H](O)CO)CN(c2ccc(C#N)c3nccnc23)C1` [Example 160, (R)—N-[(3R,5S)-1-(8-Cyano-quinoxalin-5-yl)-5-methyl-piperidin-3-yl]-2,3-dihydroxy-propionamide], the IC50 on TLR8 and at TLR7 was less than 75 nM each time.

With `CC(=O)NCCN[C@@H]1C[C@H](C)CN(c2ccc(C(F)(F)F)c3ncccc23)C1` [Example 37, N-{2-[(3R,5S)-5-Methyl-1-(8-trifluoromethyl-quinolin-5-yl)-piperidin-3-ylamino]-ethyl}-acetamide formic acid], the IC50 on TLR8 and at TLR7 was less than 75 nM each time.

Turning to `N#Cc1ncc(N2C[C@H](N)C[C@H](C(F)(F)F)C2)c2cccnc12` [Example 9, 5-((3R,5S)-3-Amino-5-trifluoromethyl-piperidin-1-yl)-[1,7]naphthyridine-8-carbonitrile], the IC50 was 75 to 150 nM on TLR8 and less than 75 nM at TLR7.

Take `CC(C(=O)N[C@@H]1C[C@H](C(F)(F)F)CN(c2ccc(C#N)c3nccnc23)C1)N1CCN(C)CC1` (single isomer, unassigned) [Example 98]: the IC50 at TLR8 and at TLR7 was less than 75 nM in each case.

Take `N#Cc1ccc(N2C[C@H](NC(=O)CC3(F)CCNCC3)C[C@H](C(F)(F)F)C2)c2nccnc12` [Example 118, N-[(3R,5S)-1-(8-cyanoquinoxalin-5-yl)-5-(trifluoromethyl)piperidin-3-yl]-2-(4-fluoropiperidin-4-yl)acetamide]: the IC50 on TLR8 and at TLR7 was less than 75 nM each time.

In the case of `C[C@H]1C[C@@H](NC(=O)[C@@H](N)CC(N)=O)CN(c2ccc(C(F)(F)F)c3ncccc23)C1` [Example 128, (2S)-2-amino-N-[(3R,5S)-5-methyl-1-[8-(trifluoromethyl)quinolin-5-yl]piperidin-3-yl]butanediamide], the IC50 on TLR8 and on TLR7 was less than 75 nM throughout.

Consider `C[C@@H]1CN(c2ccc(C#N)c3ncncc23)C[C@H](C(=O)NC2CCNCC2(F)F)O1` (stereo partly drawn) [Example 299, (2R,6R)-4-(8-Cyano-quinazolin-5-yl)-6-methyl-morpholine-2-carboxylic acid (3,3-difluoro-piperidin-4-yl)-amide], for which the IC50 at TLR8 and at TLR7 was less than 75 nM throughout.

Consider `C[C@@H]1CN(c2ccc(C#N)c3nccnc23)C[C@H](CN2CCC(F)(F)C2)O1` [Example 215, 8-[(2S,6R)-2-(3,3-Difluoro-pyrrolidin-1-ylmethyl)-6-methyl-morpholin-4-yl]-quinoxaline-5-carbonitrile], for which the IC50 on TLR8 was more than 150 nM; at TLR7 it was 75 to 150 nM.

For the compound `N#Cc1ccc(N2C[C@@H](C(F)(F)F)O[C@@H](C(=O)N3C[C@@H](N)C4(CC4)C3)C2)c2nccnc12` (single isomer, unassigned) [Example 311], the IC50 at TLR8 and on TLR7 was less than 75 nM each time.

In the case of `C[C@H]1C[C@@H](NC(=O)CC2(O)CCN(C)CC2)CN(c2ccc(C(F)(F)F)c3nccnc23)C1` [Example 80, 2-(4-hydroxy-1-methylpiperidin-4-yl)-N-[(3R,5S)-5-methyl-1-[8-(trifluoromethyl)quinoxalin-5-yl]piperidin-3-yl]acetamide hydrochloride], the IC50 at TLR8 and on TLR7 was less than 75 nM each time.

For `Cc1ccc(N2C[C@@H](C)C[C@@H](NC(=O)CC3CCN(C(C)C)CC3)C2)c2cccnc12` [Example 108, 2-(1-Isopropyl-piperidin-4-yl)-N-[(3R,5S)-5-methyl-1-(8-methyl-quinolin-5-yl)-piperidin-3-yl]-acetamide], the IC50 on TLR8 and at TLR7 was less than 75 nM each time.

Regarding `C[C@@H]1CN(c2ccc(C#N)c3nccnc23)C[C@H](C(=O)NC[C@@H]2COCCN2C)O1` (single isomer, unassigned) [Example 264], the IC50 on TLR8 and on TLR7 was less than 75 nM each time.

For the compound `C[C@@H]1CN(c2cnc(C#N)c3ncccc23)C[C@H](C(=O)NCC2CN(C)CCO2)O1` (stereo partly drawn) [Example 271, (2R,6R)-4-(8-Cyano-[1,7]naphthyridin-5-yl)-6-methyl-morpholine-2-carboxylic acid (4-methyl-morpholin-2-ylmethyl)-amide], the IC50 on TLR8 and at TLR7 was less than 75 nM in each case.

In the case of `Cc1ccc(N2C[C@H](NC(=O)CC3CCN(C(C)C)CC3)C[C@H](C(F)(F)F)C2)c2cccnc12` [Example 109, 2-(1-Isopropyl-piperidin-4-yl)-N-[(3R,5S)-1-(8-methyl-quinolin-5-yl)-5-trifluoromethyl-piperidin-3-yl]-acetamide], the IC50 at TLR8 was 75 to 150 nM; at TLR7, more than 150 nM.

For `C[C@H]1C[C@@H](NC(=O)CCN(C)C)CN(c2ccc(C(F)(F)F)c3nccnc23)C1` [Example 78], the IC50 at TLR8 and at TLR7 was less than 75 nM each time.
